Source: the METLIN SMRT retention time set (Domingo-Almenara et al. 2019)

Assay: gradient 5% acetonitrile 3 min, to 50% in 2 min, to 85% in 15 min, held 3 min, 100 µL/min
Settings: column: Zorbax Extend-C18 2.1 x 50 mm; eluents: water / acetonitrile, 0.1% formic acid
In short: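 Over 3 months, pure standards in mixtures of ~100 molecules were run by HPLC coupled to a quadrupole time-of-flight mass spectrometer in positive and negative ionization mode. The column was a Zorbax Extend-C18 (2.1 × 50 mm, 1.8 μm) at 100 μL/min, eluted with water and acetonitrile each holding 0.1% formic acid, with 40 μL dead and 900 μL dwell volumes. Retention time was determined from adduct peaks chosen by software and checked manually.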

RP-LC retention time	Structure (SMILES)
715 s	CC(NC(=O)C1CCN(c2cncnc2N2CCCCC2)CC1)c1ccc(F)cc1 (stereo not drawn)
1110 s	Cc1ccc(NC(=O)Cn2nc(N3CCCC(C)C3)c3ccccc3c2=O)c(F)c1 (stereo not drawn)
766 s	Cc1ccc(-c2cc3n(n2)CCCN(C(=O)c2ccccn2)C3)cc1
621 s	COCc1ncc(C)n1CC1CN(C(=O)C2(c3ccccc3)CC2)C1
623 s	O=C1CCC2(CNC(=O)c3cnccn3)CCCC=C2N1 (stereo not drawn)
724 s	CSc1ccc(-c2nc3nc(C)cc(C)n3c2Nc2ccc3c(c2)OCCO3)cc1
816 s	CCc1nc2cc(N3CCC(C(=O)NCc4cccs4)CC3)cnc2nc1CC
1320 s	CC(C)(C)c1ccccc1OCC(=O)Nc1nc(-c2ccccc2)cs1
658 s	CCNC(=O)N1CC=C(C(=O)Nc2ccccc2)CC1
987 s	CCOc1cccc(CNc2cc(-n3nc(C)cc3C)ncn2)c1
647 s	Cc1cc(C)cc(C(=O)N2CCN(c3nc(CN4CCOCC4)cs3)CC2)c1
914 s	COc1ccc(NC(=O)C2CCCN(S(=O)(=O)c3cc(-c4noc(C)n4)cs3)C2)cc1 (stereo not drawn)
587 s	O=C(NC1CC1)c1cc(=O)[nH]c2ccccc12
882 s	CC1(C(=O)NCc2ccc(F)cc2)CN(S(C)(=O)=O)CC(=O)N1CCCc1ccccc1 (stereo not drawn)
620 s	Cc1cc(C)cc(NC(=O)Nc2ccc3nc(N4CCN(C)CC4)cc(C)c3c2)c1
604 s	CCN1CCN(c2ncc(C(=O)OC)c3ccccc23)CC1
780 s	O=C(Nc1ccc(F)c(Cl)c1)C1CCCN(c2ccnc(-c3ccc(F)cc3)n2)C1 (stereo not drawn)
1240 s	COc1ccccc1-c1nc(Cn2nnc(-c3nc(-c4ccc(Cl)c(F)c4)no3)c2C)c(C)o1
546 s	Cc1noc([C@@H]2CN(Cc3cc(F)cc(F)c3)C[C@H]2CO)n1
796 s	COC(=O)C1=CN(c2cccc(F)c2)c2ccccc2S1(=O)=O
605 s	O=C(Cn1ncn2c(cc3cc(F)ccc32)c1=O)N1CCN(c2ccccn2)CC1
812 s	Cc1ccc(C(=O)Nc2ccc(CN3CCN(C)CC3)c(C(F)(F)F)c2)cc1C#Cc1cnc2cccnn12

RP-LC retention time	Structure (SMILES)
768 s	O=C(NCC1CN(c2ccc3c(c2)OCO3)C(=O)O1)Nc1ccccc1C(F)(F)F (stereo not drawn)
1040 s	O=C1CC(c2noc(Cc3ccc(F)cc3)n2)CN1c1ccc(F)c(Cl)c1 (stereo not drawn)
786 s	Cn1nccc1-c1cccc(-c2noc(-c3cnccn3)n2)c1
893 s	O=C(Cc1cccs1)Nc1cnc(-c2ccccc2)nc1
629 s	CCn1c(=O)sc2cc(S(=O)(=O)N3CCC(C(=O)NCc4ccccn4)CC3)ccc21
1150 s	CC(C)n1nc(-c2nc(-c3cccc(Cl)c3)no2)ccc1=O
581 s	CCN1CCN(CCCNC(=O)c2cc(-c3cccnc3)nc3ccc(Br)cc23)CC1
696 s	COC(=O)c1cnc2nc(C)ccc2c1Nc1ccc(C)c(F)c1
884 s	Cc1noc([C@@H]2CC(F)(F)CN2S(=O)(=O)c2ccc(F)cc2)n1
595 s	Cc1ccc(CN2CCC3(CC2)CC(CC(=O)N2CCOCC2)CCO3)s1 (stereo not drawn)
653 s	CC1(C(=O)NCc2ccc(F)cc2)CCN(C(=O)Nc2ccc3c(c2)OCCO3)CC1
761 s	CCCN(C)C(=O)c1c(C)oc2ccn(Cc3ccc(F)cc3)c(=O)c12
600 s	CCN(CC)CCCNC(=O)c1nnc(-c2ccc(S(=O)(=O)N3CCOCC3)cc2)o1
720 s	CCS(=O)(=O)Nc1ccc(-c2noc(CNS(=O)(=O)c3ccccc3)n2)cc1
874 s	O=C(Nc1ccsn1)c1ccc(Cl)cc1Cl
590 s	CCCn1cnc2cc(CNC(=O)C3CCCC3)ccc21
1050 s	Cc1ccc(C)c(Cn2nc3c(S(=O)(=O)N4CCN(c5ccc(F)cc5)CC4)cccn3c2=O)c1
1230 s	Cc1sc(-c2cc(C(F)(F)F)on2)cc1S(=O)(=O)NCC(C)c1ccccc1 (stereo not drawn)
755 s	COc1ccc(C2(C(=O)N3CC(N(Cc4ccncc4)CC4CC4)C3)CCCCC2)cc1
901 s	O=C(NCCc1csc(-c2cccs2)n1)C1CCN(C(=O)CCC2CCCC2)CC1
1260 s	Cc1ccc(S(=O)(=O)N2CCC(c3noc(-c4ccccc4C)n3)CC2)cc1C
801 s	Cc1ccc2c(c1)C1CC(C)(O2)N(c2cccc(C(=O)NCc3ccco3)c2)C(=O)N1 (stereo not drawn)

RP-LC retention time	Structure (SMILES)
595 s	CC(C)N1CCN(c2ncc(C(=O)NCc3ccccc3)c(N)n2)CC1
691 s	CC(C)C(=O)NCc1csc(C2CCCN(C(=O)C3CCCC3)C2)n1 (stereo not drawn)
1190 s	CCCN1C(=O)COc2ccc(-c3noc(/C=C/c4ccc(OC)cc4)n3)cc21
596 s	COCC(C)(O)CNC(=O)NC1CCCCC1 (stereo not drawn)
680 s	CC1CCC(NC(=O)C2CCCN(c3cn[nH]c(=O)c3)C2)CC1 (stereo not drawn)
709 s	CCCn1cc(CNC(=O)C2CCCN(c3nnc4ccc(C(F)(F)F)cn34)C2)c(C)n1 (stereo not drawn)
588 s	Cc1cc(Nc2ccc(NC(=O)c3cnccn3)cc2)nc(N2CCCCC2)n1
891 s	COc1ccc(OC)c2[nH]c(C(=O)N[C@H](C(=O)O)c3ccccc3)cc12
682 s	C=CCn1c(=O)c2ccccc2n(Cc2nc(-c3ccc(OCC)c(OC)c3)no2)c1=O
596 s	CCC1CCCCN1CCCNC(=O)CCc1cc2cc(OC)ccc2[nH]c1=O (stereo not drawn)
1070 s	CCOC(=O)c1noc2ncnc(N3CCN(c4ccccc4F)CC3)c12
1010 s	CCCCC(=O)Nc1ccc2nc(N3CCN(c4ccccc4Cl)CC3)cc(C(=O)O)c2c1
981 s	Cc1nc(CCNC(=O)C2CCN(S(=O)(=O)c3ccc(C4CCCCC4)cc3)CC2)cs1
713 s	CNC(=O)c1ccc(-c2nc3cc(NS(=O)(=O)c4cc(C)c(C)cc4C)ccc3n2C)cc1
850 s	CCOc1ccc(CC(=O)N2CCCn3nc(-c4cccs4)cc3C2)cc1
819 s	Cc1nnc(-c2nnc(NCc3ccccc3F)c3ccccc23)o1
767 s	Cc1ccccc1C(=O)N1CCC2(C1)C(=O)N(C)c1ccccc12 (stereo not drawn)
927 s	CCc1ccc(N2CC(c3noc(-c4cc(OC)c(OC)c(OC)c4)n3)CC2=O)cc1 (stereo not drawn)
724 s	COc1ncc(C(=O)Nc2ccc(F)cc2F)c(C)n1
694 s	O=S(=O)(c1ccc2c(c1)CCC2)N1CCC(Cc2nc(-c3cccnc3)n[nH]2)C1 (stereo not drawn)
667 s	CCCNc1cc(N2CCCC(CCC(=O)Nc3ccc(OC)c(OC)c3)C2)ncn1 (stereo not drawn)
787 s	Cn1ncc2c3ccccc3n(CCCC(=O)NCc3ccco3)c2c1=O

RP-LC retention time	Structure (SMILES)
1010 s	COc1ccc(-c2nc(NC(=O)CS(=O)(=O)c3ccc(C)cc3)sc2C)cc1
990 s	O=C(Nc1cccc(Br)c1)c1cnc(-c2ccccc2)nc1-c1ccncc1
599 s	CCc1cc(N2CCN(C(=O)c3ccc(N(C)C)cc3)CC2)nc2nnc(C)n12
973 s	Cc1ccc(S(=O)(=O)N2C(=O)CCC2C(=O)Nc2ccc(C)c(C)c2)cc1 (stereo not drawn)
597 s	Cc1ccc(NC(=O)C2CCN(S(=O)(=O)c3cn(C(C)C)cn3)CC2)cc1N(C)C
756 s	CCN1c2ccccc2C(=O)NC12CCN(C(=O)c1ccc(F)cc1)CC2
825 s	Cc1c(C(=O)NC2CC2)cnn1-c1ccc(-c2nc(C3CC3)no2)cn1
791 s	CCN1c2cc(F)ccc2C(=O)NC12CCN(C(=O)c1cccc(F)c1)CC2
766 s	O=C(c1ccc2cc[nH]c2c1)N1C[C@@H]2C[C@H]1C[C@@H]2NS(=O)(=O)c1ccccc1
1200 s	Cc1ccc(Sc2nccnc2N2CCC(C(=O)N3CCN(c4ccc(F)cc4)CC3)CC2)cc1
990 s	Cc1nn(-c2nc3ccccc3[nH]2)c2c1C(=O)CC(c1ccccc1)C2 (stereo not drawn)
612 s	Cc1c(C(=O)NCCCN2CCOCC2)oc2ccc3c(c12)C(O)CC(C)(C)O3 (stereo not drawn)
693 s	Cc1ccc(C)c(NC(=O)C(=O)NCC(c2ccc3c(c2)OCO3)N2CCOCC2)c1 (stereo not drawn)
1160 s	CSc1ccc(-c2nc3cnccn3c2Nc2ccc(C(C)C)cc2)cc1
692 s	Cc1nnc(-c2ccc3ccn(CC(=O)N4CCN(c5ncccn5)CC4)c3c2)o1
739 s	CCOC(=O)c1cccc(NC(=O)CCc2c(-c3ccc(Cl)cc3)nc3ccccn23)c1
1020 s	COc1cccc(-c2noc(CN3C(=O)COc4ccc(Cl)cc43)n2)c1OC
690 s	CC(=O)N1CCc2cc(N3CC(C(=O)Nc4ccccc4F)CC3=O)ccc21 (stereo not drawn)
1370 s	Cc1ccc(-c2nc(-c3ccc(-n4cccn4)nc3)no2)cc1F
957 s	Cc1ccc(N2CC(c3noc(-c4ccc5c(c4)OCO5)n3)CC2=O)cc1 (stereo not drawn)
620 s	Cc1nc(Nc2ncc3c(n2)CCCC3=O)nc2c(C)cccc12

Structure (SMILES)	RP-LC retention time
CCOC(=O)c1c(C)n(Cc2ccco2)c2ccc(OC)cc12	1050 s
